Results taken from patent US20240158430A1, “NOVEL COMPOUND OR SALT THEREOF, AND ANTITUMOR ACTIVATOR CONTAINING SAME AS ACTIVE INGREDIENT” (AKITA UNIVERSITY, priority 2021, published 2024).

Tested on: Kato III
Test: Cytocidal effect, Kato III
Assay type: cell-based
Conditions: 2 μM and 5 μM, cells counted after 48 and 72 hours
Description: The method is as follows. Each cell line was added to 6-well plate by 5×10^4, 2 μM and 5 μM of GO-Y199 were added after 24 hours, and the number of cells was counted after 48 hours and 72 hours.

Which cytocidal effect does the source give for `COCOc1cc(/C=C/C(=O)CC(SCCOCCOCCOCCOCc2cn([C@@H]3O[C@H](CO)[C@@H](O[C@@H]4O[C@H](CO)[C@H](O)[C@H](O)[C@H]4O)[C@H](O)[C@H]3O)nn2)c2cc(OCOC)cc(OCOC)c2)cc(OCOC)c1` (stereo partly shown) [GO-Y199] here?
Its cytocidal effect is “cytocidal effect”.
